Data: patent US9416115B2, “Fused heterocyclic compounds as ion channel modulators” (Gilead Sciences, Inc., priority 2013, dated 2016)
Where two headings read alike, the source gives them in different places.

Experiments:
Type in all cases: cell-based
[1] = molecular target: T1, wild-type human cardiac sodium channel, hNav1.5 (Homo sapiens, UniProt Q14524); test: Late INa screening assay (QPatch whole cell patch clamp, Tefluthrin-induced late current); conditions: HEK293 hNav1.5, percent block of late INa
T1 sequence (Q14524 whole entry): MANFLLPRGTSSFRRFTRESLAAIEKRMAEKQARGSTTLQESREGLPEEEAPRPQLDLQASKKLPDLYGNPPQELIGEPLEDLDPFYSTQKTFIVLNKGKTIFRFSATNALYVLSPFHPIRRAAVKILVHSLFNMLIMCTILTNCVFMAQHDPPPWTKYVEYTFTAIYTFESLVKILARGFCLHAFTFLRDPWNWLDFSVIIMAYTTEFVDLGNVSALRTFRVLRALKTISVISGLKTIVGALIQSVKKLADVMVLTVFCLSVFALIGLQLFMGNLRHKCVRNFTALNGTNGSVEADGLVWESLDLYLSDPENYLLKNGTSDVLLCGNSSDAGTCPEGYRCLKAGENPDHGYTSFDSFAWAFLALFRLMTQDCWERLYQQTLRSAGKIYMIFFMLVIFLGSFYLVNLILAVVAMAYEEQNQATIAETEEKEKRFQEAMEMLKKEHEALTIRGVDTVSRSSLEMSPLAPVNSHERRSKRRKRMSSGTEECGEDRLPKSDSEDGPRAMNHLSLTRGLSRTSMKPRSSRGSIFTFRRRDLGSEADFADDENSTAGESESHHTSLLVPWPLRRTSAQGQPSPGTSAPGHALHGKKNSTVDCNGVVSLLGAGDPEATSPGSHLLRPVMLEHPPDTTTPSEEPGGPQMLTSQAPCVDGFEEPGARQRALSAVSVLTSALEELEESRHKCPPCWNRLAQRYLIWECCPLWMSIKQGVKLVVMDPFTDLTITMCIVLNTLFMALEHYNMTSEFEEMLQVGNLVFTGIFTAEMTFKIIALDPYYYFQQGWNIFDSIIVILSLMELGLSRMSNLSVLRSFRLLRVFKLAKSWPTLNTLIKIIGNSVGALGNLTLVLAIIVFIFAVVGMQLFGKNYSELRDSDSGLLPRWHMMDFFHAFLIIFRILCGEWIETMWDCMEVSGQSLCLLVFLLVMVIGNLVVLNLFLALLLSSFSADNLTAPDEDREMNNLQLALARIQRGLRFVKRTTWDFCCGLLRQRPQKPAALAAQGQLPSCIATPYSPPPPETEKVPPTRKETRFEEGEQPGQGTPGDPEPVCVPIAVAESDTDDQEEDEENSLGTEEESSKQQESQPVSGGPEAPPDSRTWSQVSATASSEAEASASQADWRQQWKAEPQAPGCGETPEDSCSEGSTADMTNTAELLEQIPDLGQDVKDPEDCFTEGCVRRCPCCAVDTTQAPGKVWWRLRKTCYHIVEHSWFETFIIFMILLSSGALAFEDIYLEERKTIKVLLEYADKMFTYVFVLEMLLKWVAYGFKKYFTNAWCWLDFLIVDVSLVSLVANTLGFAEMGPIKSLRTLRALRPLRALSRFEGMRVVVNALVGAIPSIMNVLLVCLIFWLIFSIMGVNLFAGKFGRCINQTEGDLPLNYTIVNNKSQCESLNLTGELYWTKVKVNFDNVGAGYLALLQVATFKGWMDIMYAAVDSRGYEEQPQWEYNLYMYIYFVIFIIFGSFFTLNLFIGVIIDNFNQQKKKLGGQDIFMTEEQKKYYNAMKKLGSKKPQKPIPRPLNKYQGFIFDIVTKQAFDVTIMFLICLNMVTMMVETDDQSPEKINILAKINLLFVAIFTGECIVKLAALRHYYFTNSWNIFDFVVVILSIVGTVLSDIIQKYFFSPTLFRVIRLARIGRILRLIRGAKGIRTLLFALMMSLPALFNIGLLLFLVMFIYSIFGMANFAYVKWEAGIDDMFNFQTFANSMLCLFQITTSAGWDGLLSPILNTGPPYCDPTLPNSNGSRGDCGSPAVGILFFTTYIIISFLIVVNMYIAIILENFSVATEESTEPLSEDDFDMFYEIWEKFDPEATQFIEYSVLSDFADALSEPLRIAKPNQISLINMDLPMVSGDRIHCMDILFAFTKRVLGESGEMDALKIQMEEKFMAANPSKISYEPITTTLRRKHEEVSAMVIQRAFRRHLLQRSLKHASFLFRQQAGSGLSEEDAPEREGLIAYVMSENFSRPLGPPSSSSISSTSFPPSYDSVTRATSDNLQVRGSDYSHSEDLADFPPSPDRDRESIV
Description: (§1) The cardiac late sodium current (Late INa) and peak sodium current (Peak INa) assays are performed on an automated electrophysiology platform, QPatch 16X or QPatch HT (Sophion Bioscience, Copenhagen, Denmark) using the whole cell patch clamp technique to measure currents through the cell membrane. The assay uses an HEK293 (human embryonic kidney) cell line heterologously expressing the wild-type human cardiac sodium channel, hNav1.5, purchased from Millipore (Billerica, Mass.). No beta subunits were coexpressed with the Na channel alpha subunit. Cells are maintained with standard tissue culture procedures and stable channel expression is maintained with 400 μg/mL Geneticin in the culture medium. Experiments are carried out at 23-25° C.
(§2) For both the Late INa and Peak INa assays, series resistance compensation is set to 100% and series resistance and whole-cell compensation are performed automatically. Currents are digitized at 25 kHz and low-pass filtered at 5 kHz and stored in the Sophion Bioscience Oracle database (Sophion Bioscience, Copenhagen, Denmark). Analysis is performed using QPatch Assay software and data are compiled in Excel 2010 (Microsoft, Seattle, Wash., U.S.A.).
(§3) Compound stocks are routinely made by the Gilead Sample Bank in vials to 10 mM in dimethyl sulfoxide (DMSO). In some cases, when compounds are not soluble in DMSO, they are made in 100% ethanol. Stocks are sonicated as necessary. The extracellular solution for screening Late INa is composed of: 140 mM NaCl, 4 mM KCl, 1.8 mM CaCl2, 1 mM MgCl2, 10 mM HEPES and 10 mM Dextrose with pH adjusted to 7.35 using NaOH. The intracellular solution contains: 105 mM CsF, 20 mM CsCl, 10NaF, 2 mM EGTA, 10 mM HEPES and 10 mM Dextrose with pH adjusted to 7.35 with CsOH. Compounds are diluted in extracellular solution using a MicroLab Nimbus (Hamilton Robotics, Reno, Nev.) to between 0.3 and 3 μM in glass vials and transferred to glass well plates before robotic addition to the cells. The 0 mM Na extracellular solution (0Na-ECF) used at the end of each experiment for the Late INa and Peak INa assays to measure baseline current contains: 140 Choline-Cl; 4 mM KCl, 1.8 mM CaCl2; 1 mM MgCl2; 10 mM HEPES and 10 mM Dextrose with pH was adjusted to 7.35 with CsOH.
For the Late INa assay, sodium channels are activated every 10 seconds (0.1 Hz) by depolarizing the cell membrane to −20 mV for 250 milliseconds (ms) from a holding potential of −120 mV.
Compounds were tested to determine their activity in blocking the late sodium current. Late INa was generated by adding 10 μM Tefluthrin (pyrethroid) to the extracellular solution. For the purposes of the screening, Late INa is defined as the mean current between […] during the voltage step to −20 mV. After establishing the whole cell recording configuration, Late INa activator is added to each well 4 times over a 15 minute period so that the late component of the Na current reaches a stable value. Compounds were then added (typically at 0.3 or 1 μM), in the presence of the Late Na^+ activator, with 3 additions over the course of 5 minutes. Measurements were made at the end of exposure to the third compound addition and values were normalized to the current level when all Na^+ was removed from the extracellular solution after two additions of 0Na-ECF.
Results are reported as percent block of late INa and results were analyzed by incorporating rundown correction for the Late INa.

[2] = molecular target: T1, wild-type human cardiac sodium channel, hNav1.5; test: Peak INa screening assay (tonic block and use-dependent block)
Description: as §1, §2, §3
Compounds were evaluated for their effect Nav1.5 Peak INa. It is contemplated that the compounds of Formula I avoid significant block of peak INa. Since the peak INa in the cells used herein can be very large, introducing artifacts in the recording, the concentration of Na^+ in the bath can be reduced to 40 mM by isosmotic replacement of Na^+ with Choline (see below).
Tonic Block (TB) of Peak INa was measured using a voltage step to −20 mV from a holding potential of −100 mV at a low stimulation frequency of 0.1 Hz. Use-Dependent Block (UDB) of Peak INa was measured during pulse number 50 of a pulse train (−20 mV, 20 ms, 50 pulses, 3 Hz) from a holding potential of −100 mV.
The extracellular solution for screening Peak INa is composed of: 40 mM NaCl, 100 mM Choline-Cl, 4 mM KCl, 1.8 mM CaCl2, 1 mM MgCl2 10 mM HEPES and 10 mM Dextrose with pH adjusted to 7.35 using NaOH. The intracellular solution used for the Peak INa assay is the same as outlined for the Late INa assay (see above).
After establishing the whole cell recording configuration, channels were stimulated to open with low frequency (0.1 Hz) so that the recording can be monitored and the extent to which the recording has stabilized can be assessed.
The test compound is then applied at 1 or 3 μM and was added 2 times at 60 second intervals. After the second compound addition, a 200 second wait period was imposed to allow for equilibration. Voltage protocols for TB and UDB are were performed in the absence and presence of compound and TB and UDB are calculated with respect to the compound free condition. Both TB and UDB were analyzed by incorporating rundown correction for the peak INa.

hNav1.1 (SCN1A) = hNav1.1 (SCN1A) (Homo sapiens, UniProt P35498); test: Use-dependent inhibition of the CNS Nav1.1 sodium channel; conditions: use-dependent block, 25 Hz, pulse 20, read-out: Nav1.1 UDB 25 Hz 10 uM
Description: HEK-293 cells stably expressing wild-type (WT) hNav1.1 (SCN1A, NCBI# AB09354) were obtained from Millipore (Cat. # CYL3009) were used to record INa. Cells are maintained with standard tissue culture procedures and stable channel expression is maintained with 400 ug/mL G418 in the culture medium. Unless otherwise noted, all reagents are purchased from Sigma-Aldrich (St Louis, Mo., U.S.A.).
Assays measuring Use-Dependent Block (UDB) of Nav1.2 are performed on an automated electrophysiology platform, QPatch 16X or QPatch HT (Sophion Bioscience, Copenhagen, Denmark), using the whole cell patch clamp technique to measure currents through the cell membrane. Series resistance compensation is set to 100% and series resistance and whole-cell compensation are performed automatically. Currents stored in the Sophion Bioscience Oracle database (Sophion Bioscience, Copenhagen, Denmark). Analysis is performed using QPatch Assay software and data are compiled in Excel 2010 (Microsoft, Seattle, Wash., U.S.A.).
The internal (pipette) solution consists of (in mM) 105 CsF, 10 NaF, 20 CsCl, 2 EGTA, 10 HEPES, 10 Dextrose with a pH of 7.35 and osmolarity of 300 mOsmol/kg. The external (bath) solution contains in (mM): 145 NaCl, 4 KCl, 1.8 CaCl2, 1 MgCl2, 10 dextrose, 10 HEPES, with a pH of 7.35 and osmolarity of 310 mOsmol/kg. Experiments are carried out at 23-25° C.
Compound stocks are routinely made by the Gilead Sample Bank in vials to 10 mM in dimethyl sulfoxide (DMSO). In some cases, when compounds are not soluble in DMSO, they are made in 100% ethanol. Stocks are sonicated as necessary. […]
Cells are allowed to stabilize for 10 min after establishment of the whole-cell configuration before current is measured. The test compound is applied 2 times at 60 second intervals. After the second compound addition, a 200 second wait period was imposed to allow for equilibration. Leak currents are subtracted by using an online P/4 procedure and all currents are low-pass Bessel filtered at 5 kHz and digitized at […].
Use-dependent block of Nav1.2 peak current is measured during pulse number 20 of a voltage pulse train (0 mV, 20 ms, 20 pulses, 25 Hz) from a holding potential of −120 mV. Currents are normalized to the peak current recorded in response to the first pulse in each frequency train. The voltage protocol for UDB was performed in the absence and presence of compound and percentage inhibition was calculated with respect to the compound free condition. Results are presented as mean percentage inhibition and data analysis is performed using QPatch Assay Software 4.0, and Excel 2002 (Microsoft, Seattle, Wash., U.S.A.).

[3] = tonic block of Peak INa, 0.1 Hz, holding -100 mV, read-out: Peak TB 3 uM
[4] = use-dependent block of Peak INa, 3 Hz, pulse 50, read-out: Peak UDB 3 Hz 3 uM

Compound | inhibition at 1 µM [1] [%] | inhibition at 3 µM [2, 3] [%] | inhibition at 3 µM [2, 4] [%] | inhibition at 10 µM (hNav1.1 (SCN1A)) [%] | inhibition at 0.3 µM [1] [%]
O=C1CC(COc2noc3ccc(-c4ccc(OC(F)(F)F)cc4)cc23)CN1 (stereo not drawn) [Example 46, 4-(((5-(4-(trifluoromethoxy)phenyl)benzo[d]isoxazol-3-yl)oxy)methyl)pyrrolidin-2-one] | 36.8 | 23.7 | 13.9 | 78.4 | 
FC(F)(F)Oc1ccc(-c2ccc3onc(OC[C@@H]4CCCN4)c3c2)cc1 [Example 108, (S)-3-(pyrrolidin-2-ylmethoxy)-5-(4-(trifluoromethoxy)phenyl)benzo[d]isoxazole] | 83.5 | 62.6 | 69.3 | 89.2 | 30.1
Cc1cccc(CNc2noc3ccc(-c4ccc(OC(F)(F)F)cc4)cc23)n1 [Example 129, N-((6-methylpyridin-2-yl)methyl)-5-(4-(trifluoromethoxy)phenyl)benzo[d]isoxazol-3-amine] | 67.5 |  |  | 33.5 | 34.3
FC(F)(F)Oc1ccc(-c2ccc3onc(OCCn4ccnc4)c3c2)cc1 [Example 55, 3-(2-(1H-imidazol-1-yl)ethoxy)-5-(4-(trifluoromethoxy)phenyl)benzo[d]isoxazole] | 59.9 | 15.1 | 5.13 | 79.8 | 45.4
Cc1cc(-c2ccc(OC(F)(F)F)cc2)cc2c(OCCN3CCCC3=O)noc12 [Example 88, 1-(2-((7-methyl-5-(4-(trifluoromethoxy)phenyl)benzo[d]isoxazol-3-yl)oxy)ethyl)pyrrolidin-2-one] | 47.7 | 20.8 | 19.5 | 66.7 | 
CN1CC(COc2noc3ccc(-c4ccc(OC(F)(F)F)cc4)cc23)CC1=O (stereo not drawn) [Example 56, 1-methyl-4-(((5-(4-(trifluoromethoxy)phenyl)benzo[d]isoxazol-3-yl)oxy)methyl)pyrrolidin-2-one] | 57.8 | 30.4 | 31.4 | 83.6 | 16.1
Fc1cc(OC(F)(F)F)ccc1-c1ccc2onc(OCc3ncccn3)c2c1 [Example 2, 5-(2-fluoro-4-(trifluoromethoxy)phenyl)-3-(pyrimidin-2-ylmethoxy)benzo[d]isoxazole] | 54.6 | 66.1 | 27.9 |  | 
Cc1nccn1CCOc1noc2ccc(-c3ccc(OC(F)(F)F)cc3)cc12 [Example 57, 3-(2-(2-methyl-1H-imidazol-1-yl)ethoxy)-5-(4-(trifluoromethoxy)phenyl)benzo[d]isoxazole] | 57.3 | 22.1 | 37.1 | 82.5 | 17
FC(F)(F)Oc1ccc(-c2ccc3onc(Oc4ccccn4)c3c2)cc1 [Example 125, 3-(pyridin-2-yloxy)-5-(4-(trifluoromethoxy)phenyl)benzo[d]isoxazole] | 41.8 |  |  | < 5 | 
